Results on nine molecules are retold here after PubChem BioAssay AID250 (DTP/NCI, 2004).

Several values for one entry are separate records, joined by “and”; a condition that tells them apart may be missing. Equal values may be shown once. Toxic doses and inconclusive results are not listed.

This experiment concerns BDF1 mice, L1210 leukemia sc, survival T/C. The experiment is described as follows: NCI In Vivo Anticancer Drug Screen. Data for tumor model L1210 Leukemia (subcutaneous) in B6D2F1 (BDF1) mice. Conditions: higher = longer survival. The method in brief:
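Mice carrying transplanted tumors received test compounds, and survival or tumor size was measured. Values are the treated-group measurement (T) divided by that of the vehicle-treated control group (C).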

The mark [1] stands for this setting: endpoint: median survival time, dose: 1.0 mg/kg/injection, schedule: Q01DX009 (sc), vehicle: water.
The mark [2] stands for this setting: endpoint: median survival time, dose: 2.0 mg/kg/injection, schedule: Q01DX009 (sc), vehicle: water.
Where [3] appears, read: endpoint: median survival time, dose: 23.0 mg/kg/injection, schedule: Q01DX Z (sc), vehicle: carboxymethylcellulose (CMC).
The mark [4] stands for this setting: endpoint: median survival time, dose: 39.0 mg/kg/injection, schedule: Q01DX Z (sc), vehicle: carboxymethylcellulose (CMC).
The mark [5] stands for this setting: endpoint: median survival time, dose: 65.0 mg/kg/injection, schedule: Q01DX Z (sc), vehicle: carboxymethylcellulose (CMC).

Consider `COC1=C(N)C(=O)c2nc(-c3nc(C(=O)O)c(C)c(-c4ccc(OC)c(OC)c4O)c3N)ccc2C1=O`, for which the T/C runs as follows: (endpoint: median survival time, dose: 0.02 mg/kg/injection, schedule: Q01DX009 (ip), vehicle: water) 92 % of control; (endpoint: median survival time, dose: 0.02 mg/kg/injection, schedule: Q01DX009 (sc), vehicle: water) 93 % of control; (endpoint: median survival time, dose: 0.05 mg/kg/injection, schedule: Q01DX009 (ip), vehicle: water) 96 % of control; (endpoint: median survival time, dose: 0.05 mg/kg/injection, schedule: Q01DX009 (sc), vehicle: water) 98 % of control; (endpoint: median survival time, dose: 0.1 mg/kg/injection, schedule: Q01DX009 (ip), vehicle: water) 96 % of control; (endpoint: median survival time, dose: 0.1 mg/kg/injection, schedule: Q01DX009 (sc), vehicle: water) 96 % of control. The T/C by setting is: (endpoint: median survival time, dose: 0.2 mg/kg/injection, schedule: Q01DX009 (ip), vehicle: water) 93 % of control; (endpoint: median survival time, dose: 0.2 mg/kg/injection, schedule: Q01DX009 (sc), vehicle: water) 94 % of control; (endpoint: median survival time, dose: 0.25 mg/kg/injection, schedule: Q01DX009 (sc), vehicle: water) 104 % of control; (endpoint: median survival time, dose: 0.4 mg/kg/injection, schedule: Q01DX009 (ip), vehicle: water) 102 % of control; (endpoint: median survival time, dose: 0.4 mg/kg/injection, schedule: Q01DX009 (sc), vehicle: water) 98 % of control; (endpoint: median survival time, dose: 0.5 mg/kg/injection, schedule: Q01DX009 (sc), vehicle: water) 94 % of control and 106 % of control. Besides, the T/C was 96 % of control and 101 % of control under setting [1]; 94 % of control and 96 % of control under setting [2]; 94 % of control (endpoint: median survival time, dose: 4.0 mg/kg/injection, schedule: Q01DX009 (sc), vehicle: water).
As for `Nc1nc(SCc2ccccc2)c2[nH]cnc2n1`, the T/C by setting is: (endpoint: median survival time, dose: 180.0 mg/kg/injection, schedule: Q01DX Z (sc), vehicle: methylcellulose (MC)) 122 % of control; (endpoint: median survival time, dose: 300.0 mg/kg/injection, schedule: Q01DX Z (sc), vehicle: methylcellulose (MC)) 122 % of control; (endpoint: median survival time, dose: 500.0 mg/kg/injection, schedule: Q01DX Z (sc), vehicle: methylcellulose (MC)) 111 % of control.
In the case of `Nc1cc(=O)[nH][nH]1`, the T/C was 100 % of control (endpoint: median survival time, dose: 300.0 mg/kg/injection, schedule: Q01DX Z (sc), vehicle: saline); 105 % of control (endpoint: median survival time, dose: 500.0 mg/kg/injection, schedule: Q01DX Z (sc), vehicle: saline); 90 % of control (endpoint: median survival time, dose: 833.0 mg/kg/injection, schedule: Q01DX Z (sc), vehicle: saline); 90 % of control (endpoint: median survival time, dose: 1388.0 mg/kg/injection, schedule: Q01DX Z (sc), vehicle: saline).
As to `C=CCNC(=O)NCC=C`, the T/C was 105 % of control (endpoint: median survival time, dose: 100.0 mg/kg/injection, schedule: Q01DX001 (ip), vehicle: saline); 111 % of control (endpoint: median survival time, dose: 100.0 mg/kg/injection, schedule: Q01DX001 (sc), vehicle: saline); 111 % of control (endpoint: median survival time, dose: 100.0 mg/kg/injection, schedule: Q04DX003 (ip), vehicle: saline); 111 % of control (endpoint: median survival time, dose: 100.0 mg/kg/injection, schedule: Q04DX003 (sc), vehicle: saline); 111 % of control (endpoint: median survival time, dose: 200.0 mg/kg/injection, schedule: Q01DX001 (ip), vehicle: saline); 111 % of control (endpoint: median survival time, dose: 200.0 mg/kg/injection, schedule: Q01DX001 (sc), vehicle: saline). The T/C runs as follows: (endpoint: median survival time, dose: 200.0 mg/kg/injection, schedule: Q01DX009 (ip), vehicle: saline) 150 % of control; (endpoint: median survival time, dose: 200.0 mg/kg/injection, schedule: Q04DX003 (ip), vehicle: saline) 122 % of control.
For `O=NN(CCCl)C(=O)NC1CC2CCC1C2` (stereo not drawn), the T/C is 305 % of control (endpoint: median survival time, dose: 23.0 mg/kg/injection, schedule: Q01DX Z (oral), vehicle: carboxymethylcellulose (CMC)); 321 % of control under setting [3]; 542 % of control (endpoint: median survival time, dose: 39.0 mg/kg/injection, schedule: Q01DX Z (oral), vehicle: carboxymethylcellulose (CMC)); 500 % of control under setting [4]; 236 % of control (endpoint: median survival time, dose: 65.0 mg/kg/injection, schedule: Q01DX Z (oral), vehicle: carboxymethylcellulose (CMC)); 289 % of control under setting [5]. For the same molecule, the T/C (endpoint: median survival time, dose: 108.0 mg/kg/injection, schedule: Q01DX Z (oral), vehicle: carboxymethylcellulose (CMC)) was 178 % of control.
As for `C[C@@H](CN1CC(=O)NC(=O)C1)N1CC(=O)NC(=O)C1`, the T/C (endpoint: median survival time, dose: 8.0 mg/kg/injection, schedule: Q01DX009 (ip), vehicle: water) was 103 % of control; the T/C (endpoint: median survival time, dose: 16.0 mg/kg/injection, schedule: Q01DX009 (ip), vehicle: water) is 105 % of control and 115 % of control; the T/C (endpoint: median survival time, dose: 32.0 mg/kg/injection, schedule: Q01DX009 (ip), vehicle: water) is 114 % of control; the T/C (endpoint: median survival time, dose: 128.0 mg/kg/injection, schedule: Q01DX009 (ip), vehicle: water) was 150 % of control; the T/C (endpoint: median survival time, dose: 512.0 mg/kg/injection, schedule: Q01DX009 (ip), vehicle: water) was 121 % of control.
With `OC(C1CO1)C(O)C1CO1` (stereo not drawn), the T/C runs as follows: (endpoint: median survival time, dose: 0.12 mg/kg/injection, schedule: Q01DX009 (ip), vehicle: saline) 98 % of control; (endpoint: median survival time, dose: 0.25 mg/kg/injection, schedule: Q01DX009 (ip), vehicle: saline) 107 % of control; (endpoint: median survival time, dose: 0.5 mg/kg/injection, schedule: Q01DX009 (ip), vehicle: saline) 107 % of control; (endpoint: median survival time, dose: 1.0 mg/kg/injection, schedule: Q01DX009 (ip), vehicle: saline) 122 % of control; (endpoint: median survival time, dose: 1.0 mg/kg/injection, schedule: Q01DX009 (ip), vehicle: water) 116 % of control; under setting [1], 122 % of control. The T/C runs as follows: (endpoint: median survival time, dose: 2.0 mg/kg/injection, schedule: Q01DX009 (ip), vehicle: saline) 150 % of control; under setting [2], 150 % of control; (endpoint: median survival time, dose: 2.0 mg/kg/injection, schedule: Q04DX003 (ip), vehicle: water) 111 % of control; (endpoint: median survival time, dose: 4.0 mg/kg/injection, schedule: Q01DX009 (ip), vehicle: saline) 118 % of control; (endpoint: median survival time, dose: 4.0 mg/kg/injection, schedule: Q04DX003 (ip), vehicle: water) 155 % of control; (endpoint: median survival time, dose: 4.0 mg/kg/injection, schedule: Q04DX003 (sc), vehicle: water) 161 % of control. Moreover, the T/C (endpoint: median survival time, dose: 8.0 mg/kg/injection, schedule: Q04DX003 (ip), vehicle: water) is 88 % of control and the T/C (endpoint: median survival time, dose: 8.0 mg/kg/injection, schedule: Q04DX003 (sc), vehicle: water) is 116 % of control.
For the molecule `CCCC(=O)OCC1OC(n2cnc3c(=S)nc(N)[nH]c32)C(OC(=O)CCC)C1OC(=O)CCC` (stereo not drawn), the T/C was 112 % of control (endpoint: median survival time, dose: 14.0 mg/kg/injection, schedule: Q01DX Z (sc), vehicle: carboxymethylcellulose (CMC)); 100 % of control under setting [3]; 112 % of control under setting [4]; 175 % of control under setting [5]; 168 % of control (endpoint: median survival time, dose: 108.0 mg/kg/injection, schedule: Q01DX Z (sc), vehicle: carboxymethylcellulose (CMC)); 150 % of control (endpoint: median survival time, dose: 180.0 mg/kg/injection, schedule: Q01DX Z (sc), vehicle: carboxymethylcellulose (CMC)).
On to `O=c1[nH]cnc2[nH]ncc12`, for which the T/C is 97 % of control (endpoint: mean survival time, dose: 20.0 mg/kg/injection, schedule: Q01DX001 (ip), vehicle: saline); 101 % of control (endpoint: mean survival time, dose: 30.0 mg/kg/injection, schedule: Q01DX001 (ip), vehicle: saline); 98 % of control (endpoint: mean survival time, dose: 40.0 mg/kg/injection, schedule: Q01DX001 (ip), vehicle: saline); 98 % of control (endpoint: mean survival time, dose: 80.0 mg/kg/injection, schedule: Q01DX001 (ip), vehicle: saline); 99 % of control (2×) and 100 % of control (endpoint: median survival time, dose: 10.0 mg/kg/injection, schedule: Q01DX009 (ip), vehicle: saline); 90 % of control (endpoint: median survival time, dose: 20.0 mg/kg/injection, schedule: Q01DX001 (ip), vehicle: saline). For the same molecule, the T/C (endpoint: median survival time, dose: 20.0 mg/kg/injection, schedule: Q01DX009 (ip), vehicle: saline) was 100 % of control and 101 % of control (2×); the T/C (endpoint: median survival time, dose: 30.0 mg/kg/injection, schedule: Q01DX001 (ip), vehicle: saline) is 100 % of control; the T/C (endpoint: median survival time, dose: 40.0 mg/kg/injection, schedule: Q01DX001 (ip), vehicle: saline) was 100 % of control; the T/C (endpoint: median survival time, dose: 40.0 mg/kg/injection, schedule: Q01DX009 (ip), vehicle: saline) was 99 % of control (2×) and 100 % of control; the T/C (endpoint: median survival time, dose: 80.0 mg/kg/injection, schedule: Q01DX001 (ip), vehicle: saline) is 100 % of control.
